Source: publication PMC7230940 (Marine Drugs, 2020)
Positions of bridges follow the written chain, without caps; N, C: chain ends. Residues, ends and D or L forms follow the SMILES beside them.

These compounds were tested against T1, rat α6/α3β2β3 nAChRs (Rattus norvegicus, UniProt P04757+P12390+P43143).
T1 construct: remaining part of the rat nAChR α3 subunit (Chrna3, UniProt P04757 by own knowledge), fused after the α6 extracellular portion; expressed in transfected cells; host or cells: Xenopus oocytes injected with in vitro transcribed cRNA
T1 sequence (P04757 whole entry, looked up, the tested form may be a part): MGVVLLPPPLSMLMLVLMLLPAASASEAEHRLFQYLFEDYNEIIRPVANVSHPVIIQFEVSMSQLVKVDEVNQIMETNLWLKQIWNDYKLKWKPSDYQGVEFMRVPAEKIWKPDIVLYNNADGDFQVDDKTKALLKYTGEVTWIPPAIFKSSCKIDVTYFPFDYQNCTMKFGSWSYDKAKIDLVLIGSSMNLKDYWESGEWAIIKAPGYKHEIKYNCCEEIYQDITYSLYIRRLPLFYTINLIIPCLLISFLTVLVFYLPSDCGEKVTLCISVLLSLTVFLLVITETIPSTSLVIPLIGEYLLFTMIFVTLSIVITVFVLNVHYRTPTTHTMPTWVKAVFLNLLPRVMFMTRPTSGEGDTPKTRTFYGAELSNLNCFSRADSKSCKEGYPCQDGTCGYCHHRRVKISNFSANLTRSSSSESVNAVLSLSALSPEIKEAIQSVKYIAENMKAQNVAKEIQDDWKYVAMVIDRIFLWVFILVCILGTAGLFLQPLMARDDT
T1 sequence (P12390 whole entry, looked up, the tested form may be a part): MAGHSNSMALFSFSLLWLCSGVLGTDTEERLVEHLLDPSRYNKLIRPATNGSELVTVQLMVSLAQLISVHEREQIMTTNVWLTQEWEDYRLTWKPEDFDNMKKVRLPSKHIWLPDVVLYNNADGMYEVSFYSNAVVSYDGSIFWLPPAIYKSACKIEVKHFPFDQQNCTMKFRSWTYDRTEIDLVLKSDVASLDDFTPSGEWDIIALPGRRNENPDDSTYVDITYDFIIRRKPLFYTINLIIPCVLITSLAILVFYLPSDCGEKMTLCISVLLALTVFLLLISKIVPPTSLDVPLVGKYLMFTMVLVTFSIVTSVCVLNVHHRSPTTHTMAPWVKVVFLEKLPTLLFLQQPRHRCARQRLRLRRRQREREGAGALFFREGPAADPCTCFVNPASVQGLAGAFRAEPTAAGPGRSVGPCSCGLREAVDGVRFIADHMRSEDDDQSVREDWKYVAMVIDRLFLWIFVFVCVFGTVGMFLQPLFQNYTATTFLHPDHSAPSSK
T1 sequence (P43143 whole entry, looked up, the tested form may be a part): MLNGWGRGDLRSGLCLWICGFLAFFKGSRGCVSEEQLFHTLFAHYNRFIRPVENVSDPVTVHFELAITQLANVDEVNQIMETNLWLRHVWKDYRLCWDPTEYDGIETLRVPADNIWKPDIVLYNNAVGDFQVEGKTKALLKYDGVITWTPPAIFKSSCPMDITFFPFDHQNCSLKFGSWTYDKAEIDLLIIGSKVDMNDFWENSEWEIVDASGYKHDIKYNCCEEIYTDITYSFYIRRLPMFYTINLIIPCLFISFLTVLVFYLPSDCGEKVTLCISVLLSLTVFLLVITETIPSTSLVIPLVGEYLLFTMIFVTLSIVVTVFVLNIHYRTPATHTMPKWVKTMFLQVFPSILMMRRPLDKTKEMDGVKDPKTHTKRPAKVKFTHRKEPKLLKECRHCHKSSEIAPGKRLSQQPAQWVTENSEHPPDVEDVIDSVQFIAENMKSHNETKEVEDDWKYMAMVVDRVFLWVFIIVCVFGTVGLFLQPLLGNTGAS
Format: cell-based

| SMILES | inhibition of α6β2* nAChRs |
| --- | --- |
| CC(C)C[C@@H]1NC(=O)[C@H](CC(=O)O)NC(=O)[C@@H]2CCCN2C(=O)[C@H](Cc2c[nH]cn2)NC(=O)[C@H](CCCCN)NC(=O)[C@H](CC(N)=O)NC(=O)[C@H](CCCNC(=N)N)NC(=O)[C@@H]2CSSC[C@H](NC(=O)CN)C(=O)N[C@@H](CSSC[C@@H](C(N)=O)NC1=O)C(=O)N[C@@H](CO)C(=O)N[C@@H](CC(=O)O)C(=O)N1CCC[C@H]1C(=O)N1CCC[C@H]1C(=O)N2 [TxIB, α-Conotoxin TxIB, reference compound] (H-GCCSDPPCRNKHPDLC-NH2; disulfide 2-8, 3-16) | 42% |
| CC(C)C[C@@H]1NC(=O)[C@H](CC(=O)O)NC(=O)[C@@H]2CCCN2C(=O)[C@H](Cc2c[nH]cn2)NC(=O)[C@H](CCCCN)NC(=O)[C@H](CC(N)=O)NC(=O)[C@H](CCCNC(=N)N)NC(=O)[C@@H]2CSSC[C@@H]3NC(=O)CNC(=O)CNC(=O)[C@H](C)NC(=O)[C@H](C)NC(=O)CNC(=O)[C@H](CSSC[C@H](NC3=O)C(=O)N[C@@H](CO)C(=O)N[C@@H](CC(=O)O)C(=O)N3CCC[C@H]3C(=O)N3CCC[C@H]3C(=O)N2)NC1=O [cTxIB-4] (cyclo(AAGGCCSDPPCRNKHPDLCG); disulfide 5-11, 6-19) | about 35% |
| CC(C)C[C@@H]1NC(=O)[C@H](CC(=O)O)NC(=O)[C@@H]2CCCN2C(=O)[C@H](Cc2c[nH]cn2)NC(=O)[C@H](CCCCN)NC(=O)[C@H](CC(N)=O)NC(=O)[C@H](CCCNC(=N)N)NC(=O)[C@@H]2CSSC[C@@H]3NC(=O)CNC(=O)CNC(=O)[C@H](C)NC(=O)[C@H](C)NC(=O)CNC(=O)CNC(=O)[C@H](CSSC[C@H](NC3=O)C(=O)N[C@@H](CO)C(=O)N[C@@H](CC(=O)O)C(=O)N3CCC[C@H]3C(=O)N3CCC[C@H]3C(=O)N2)NC1=O [cTxIB-5] (cyclo(AAGGCCSDPPCRNKHPDLCGG); disulfide 5-11, 6-19) | ~42% |
| CC(C)C[C@@H]1NC(=O)[C@H](CC(=O)O)NC(=O)[C@@H]2CCCN2C(=O)[C@H](Cc2c[nH]cn2)NC(=O)[C@H](CCCCN)NC(=O)[C@H](CC(N)=O)NC(=O)[C@H](CCCNC(=N)N)NC(=O)[C@@H]2CSSC[C@@H]3NC(=O)CNC(=O)CNC(=O)[C@H](C)NC(=O)[C@H](C)NC(=O)CNC(=O)[C@H](C)NC(=O)CNC(=O)[C@H](CSSC[C@H](NC3=O)C(=O)N[C@@H](CO)C(=O)N[C@@H](CC(=O)O)C(=O)N3CCC[C@H]3C(=O)N3CCC[C@H]3C(=O)N2)NC1=O [cTxIB-6] (cyclo(AAGGCCSDPPCRNKHPDLCGAG); disulfide 5-11, 6-19) | ~48% |
| CC(C)C[C@@H]1NC(=O)[C@H](CC(=O)O)NC(=O)[C@@H]2CCCN2C(=O)[C@H](Cc2c[nH]cn2)NC(=O)[C@H](CCCCN)NC(=O)[C@H](CC(N)=O)NC(=O)[C@H](CCCNC(=N)N)NC(=O)[C@@H]2CSSC[C@@H]3NC(=O)CNC(=O)CNC(=O)[C@H](C)NC(=O)CNC(=O)[C@H](C)NC(=O)[C@H](C)NC(=O)CNC(=O)CNC(=O)[C@H](CSSC[C@H](NC3=O)C(=O)N[C@@H](CO)C(=O)N[C@@H](CC(=O)O)C(=O)N3CCC[C@H]3C(=O)N3CCC[C@H]3C(=O)N2)NC1=O [cTxIB-7] (cyclo(AAGAGGCCSDPPCRNKHPDLCGG); disulfide 7-13, 8-21) | ~41% |
